# Key:
# cardiac fibroblasts [1] = experiment: Western analysis of myosin light chain phosphorylation; assay type: cell-based, rat; details: co-incubation with inhibitor, 30 minutes
# Procedure: (§1) Protein concentrations of tissue and cell lysates were determined by the BCA method (Smith et al., 1985, Anal Biochem 150: 76-85). Proteins were separated by 8-12% SDS-PAGE and transferred to PVDF membrane (Roche, Indianapolis, Ind.) for 1 hour at 300 mA for small proteins or for 2 hours at 500 mA for proteins greater than 100 kDa. Membranes were blocked with 5% non-fat skim milk in tris-buffered saline containing 0.2% Tween 20 (TBST). Proteins were visualized with ECL Plus (Amersham) after probing with primary and secondary antibodies. Band intensity was quantified using a CCD camera imaging densitometer (GS670, Bio-Rad Laboratories (Canada) Ltd. Mississauga, Ontario).
# The infarct zone is repopulated by interstitial fibroblasts that infiltrate the scar after MI. […] Similar results were obtained when using the Costar Transwell® system (data not shown). To determine how the chemotactic response is transduced, we used specific inhibitors of intracellular signaling pathways. […] This effect could be blunted by co-incubation with AG490 (FIG. 22). […] Since activation of myosin motors is required for effective cell migration, and CT-1 induced migration could be inhibited by co-incubation with a myosin light chain kinase inhibitor, we sought to determine the effect of CT-1 on the phosphorylation status of myosin light chain. Myosin light chain regulates the ATPase activity of myosin heavy chain, and thus overall contractile activity. […] Myosin light chain phosphorylation could be prevented by co-incubation with ML-7 or W7 but not AG490 or PP2 (FIG. 25b).
# cardiac fibroblasts [2] = experiment: Protein synthesis assay (3H-leucine incorporation); assay type: cell-based, rat; details: co-incubation with inhibitor, CT-1 10 ng/mL
# Procedure: Protein synthesis was determined using the methods of Wolf and Neilson (Wolf and Neilson, 1990, Am J Physiol 259: 768-777). 2.5×10^4 cells (counted with a hemacytometer) were loaded into each well of 24-well plates, allowed to attach overnight, then rendered quiescent in serum free DMEM/F12 for 24 hours. Cells were stimulated with CT-1 for an additional 24 hours in the presence of 2 μCi/mL ^3H-leucine with or without inhibitors of signaling pathways. The culture media was aspirated, cells rinsed twice with phosphate buffered saline and proteins precipitated by two incubations with 10% TCA at room temperature. The precipitated protein was solubilized in 300 μl lysis buffer containing 0.5 M NaOH and 1% Triton X-100 at room temperature for 15 minutes. The lysate was transferred to scintillation vials, and beta emission was determined with 3 ml Ecolume scintillation fluid (ICN Pharmaceuticals) and a scintillation counter (LS6500, Beckman Coulter, Fullerton, Calif.).
# cardiac fibroblasts [3] = experiment: Western analysis of phosphorylation of translational regulatory proteins; assay type: cell-based, rat; details: co-incubation with inhibitor
# Procedure: as §1
# To determine the effect of CT-1 on protein synthesis in cardiac fibroblasts we measured incorporation of ^3H-labeled leucine. […] Since the activity of translational regulatory proteins is modified by phosphorylation, we used phospho-specific antibodies to determine if CT-1 directly influenced the activity of these regulatory proteins.
# We then determined the effect of pharmacologic inhibitors on the activation of this signaling cascade.
# other kinases = details: cited from earlier work
# cardiac fibroblasts [4] = experiment: Wounded monolayer model, cortactin immunostaining; assay type: cell-based, rat; details: co-incubation with inhibitor
# Procedure: Cardiac fibroblasts were seeded onto coverslips in 6-well dishes and allowed to proliferate. Once the cells were near confluency, they were serum deprived for 24 hours. A scrape was made down the middle of the coverslip with the blunt end of a 1 ml syringe and the media was changed again. Cells were further incubated in the presence or absence of CT-1 and inhibitors at specified concentrations for specified times. The cells were then subjected to immunofluorescence staining as described herein.
# angiotensinogen mRNA = details: cited from earlier work
smiles,measurement,setting,value
O=S(=O)(c1cccc2c(I)cccc12)N1CCCNCC1 [ML-7],effect on CT-1 induced myosin light chain phosphorylation,cardiac fibroblasts [1],prevented
COc1cccc(-c2cc(=O)c3ccccc3o2)c1N [PD98059],effect on CT-1 induced protein synthesis (3H-leucine uptake),cardiac fibroblasts [2],suppressed
same,"effect on CT-1 induced phosphorylation of Akt, mTOR, p70 S6 kinase, 4EB-P1 and S6 ribosomal protein",cardiac fibroblasts [3],lesser effect
same,"effect on basal and CT-1 induced phosphorylation of ERK 1/2, Mnk1, and eIF4E",cardiac fibroblasts [3],greatest inhibitory effect
same,concentration at which selectivity is maintained,other kinases,≤ 50 µM
"N#C/C(=C\c1ccc(O)c(O)c1)C(=O)NCc1ccccc1 [AG490, Tyrphostin B42]",effect on CT-1 induced cortactin localization at the leading edge,cardiac fibroblasts [4],blunted
same,angiotensinogen mRNA production in response to CT-1 stimulation,angiotensinogen mRNA,attenuate
same,effect on CT-1 induced myosin light chain phosphorylation,cardiac fibroblasts [1],not
same,effect on CT-1 induced protein synthesis (3H-leucine uptake),cardiac fibroblasts [2],suppressed
same,"effect on CT-1 induced activation of ERK 1/2, p38 MAPK, mTOR, p70 S6 kinase S421/T424, or S6 ribosomal protein",cardiac fibroblasts [3],did not significantly affect
same,"effect on CT-1 induced phosphorylation of Akt at both sites, p70 S6 kinase T389, Mnk1, eIF4E and 4E-BP1",cardiac fibroblasts [3],suppressed
C[S+]([O-])c1ccc(-c2nc(-c3ccncc3)c(-c3ccc(F)cc3)[nH]2)cc1 (stereo not drawn) [SB203580],effect on CT-1 induced protein synthesis (3H-leucine uptake),cardiac fibroblasts [2],suppressed
same,"effect on CT-1 induced phosphorylation of Akt, p70 S6 kinase and Mnk1",cardiac fibroblasts [3],suppressed
CC(C)(C)n1nc(-c2ccc(Cl)cc2)c2c(N)ncnc21 [PP2],effect on CT-1 induced myosin light chain phosphorylation,cardiac fibroblasts [1],not
NCCCCCCNS(=O)(=O)c1cccc2c(Cl)cccc12 [W7],effect on CT-1 induced myosin light chain phosphorylation,cardiac fibroblasts [1],prevented
